# Laboratory results published in ChEMBL document CHEMBL1201862, “PubChem BioAssay data set” (2004).
#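 Growth conditions: 96-well plates. Treatment: test compound, 48 hours, 5 concentrations. Analysis: linear interpolation between bracketing concentrations; unreached endpoints set to highest concentration. The concentration for 50% growth inhibition is given as GI50.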 Calls of active or inactive are those of the source. No stated cut-off is given here; in the data, active = GI50 up to about 1.1 µM and inactive = higher.
# What was measured:
# Assay in all cases: NCI tumour cell line growth inhibition, 48 h
# 786-0 = system: 786-0
# A498 = system: A498
# A549 = system: A549
# ACHN = system: ACHN
# CAKI-1 = system: CAKI-1
# CCRF-CEM = system: CCRF-CEM
# COLO 205 = system: COLO 205
# DLD-1 = system: DLD-1
# DMS-114 = system: DMS-114
# DMS-273 = system: DMS-273
# HCC 2998 = system: HCC 2998
# HCT-116 = system: HCT-116
# HCT-15 = system: HCT-15
# HL-60 = system: HL-60
# HOP-18 = system: HOP-18
# HOP-62 = system: HOP-62
# HOP-92 = system: HOP-92
# HT-29 = system: HT-29
# IGROV-1 = system: IGROV-1
# K562 = system: K562
# KM-20L2 = system: KM-20L2
# KM12 = system: KM12
# LOX IMVI = system: LOX IMVI
# LXFL 529 = system: LXFL 529
# M14 = system: M14
# M19-MEL = system: M19-MEL
# MOLT-4 = system: MOLT-4
# Malme-3M = system: Malme-3M
# NCI-H460 = system: NCI-H460
# NCI-H522 = system: NCI-H522
# OVCAR-4 = system: OVCAR-4
# OVCAR-5 = system: OVCAR-5
# OVCAR-8 = system: OVCAR-8
# RPMI-8226 = system: RPMI-8226
# RXF 393 = system: RXF 393
# RXF 631 = system: RXF 631
# SF-268 = system: SF-268
# SF-295 = system: SF-295
# SF-539 = system: SF-539
# SK-MEL-2 = system: SK-MEL-2
# SK-MEL-5 = system: SK-MEL-5
# SK-OV-3 = system: SK-OV-3
# SN12C = system: SN12C
# SNB-19 = system: SNB-19
# SNB-75 = system: SNB-75
# SNB-78 = system: SNB-78
# SR = system: SR
# SW-620 = system: SW-620
# TK-10 = system: TK-10
# U-251 = system: U-251
# UACC-257 = system: UACC-257
# UACC-62 = system: UACC-62
# UO-31 = system: UO-31
# EKVX = system: EKVX
# NCI-H226 = system: NCI-H226
# NCI-H23 = system: NCI-H23
# OVCAR-3 = system: OVCAR-3
# SK-MEL-28 = system: SK-MEL-28
# XF498 = system: XF498
structure (smiles),measurement,setting,value
O=C(O)/C(=C\c1ccccc1Cl)S(=O)(=O)c1ccccc1,GI50,786-0,> 100 µM (inactive)
same,GI50,A498,> 100 µM (inactive)
same,GI50,A549,> 100 µM (inactive)
same,GI50,ACHN,> 100 µM (inactive)
same,GI50,CAKI-1,> 100 µM (inactive)
same,GI50,CCRF-CEM,14.5 µM (inactive)
same,GI50,COLO 205,> 100 µM (inactive)
same,GI50,DLD-1,> 100 µM (inactive)
same,GI50,DMS-114,> 100 µM (inactive)
same,GI50,DMS-273,> 100 µM (inactive)
same,GI50,HCC 2998,> 100 µM (inactive)
same,GI50,HCT-116,> 100 µM (inactive)
same,GI50,HCT-15,> 100 µM
same,GI50,HL-60,> 100 µM (inactive)
same,GI50,HOP-18,> 100 µM (inactive)
same,GI50,HOP-62,> 100 µM (inactive)
same,GI50,HOP-92,> 100 µM (inactive)
same,GI50,HT-29,> 100 µM (inactive)
same,GI50,IGROV-1,> 100 µM (inactive)
same,GI50,K562,> 100 µM (inactive)
same,GI50,KM-20L2,> 100 µM (inactive)
same,GI50,KM12,> 100 µM (inactive)
same,GI50,LOX IMVI,> 100 µM (inactive)
same,GI50,LXFL 529,> 100 µM (inactive)
same,GI50,M14,> 100 µM (inactive)
same,GI50,M19-MEL,> 100 µM (inactive)
same,GI50,MOLT-4,> 100 µM (inactive)
same,GI50,Malme-3M,> 100 µM (inactive)
same,GI50,NCI-H460,> 100 µM (inactive)
same,GI50,NCI-H522,> 100 µM (inactive)
same,GI50,OVCAR-4,> 100 µM (inactive)
same,GI50,OVCAR-5,> 100 µM (inactive)
same,GI50,OVCAR-8,> 100 µM (inactive)
same,GI50,RPMI-8226,> 100 µM (inactive)
same,GI50,RXF 393,> 100 µM (inactive)
same,GI50,RXF 631,> 100 µM (inactive)
same,GI50,SF-268,> 100 µM (inactive)
same,GI50,SF-295,> 100 µM (inactive)
same,GI50,SF-539,> 100 µM (inactive)
same,GI50,SK-MEL-2,> 100 µM (inactive)
same,GI50,SK-MEL-5,> 100 µM (inactive)
same,GI50,SK-OV-3,> 100 µM (inactive)
same,GI50,SN12C,> 100 µM (inactive)
same,GI50,SNB-19,> 100 µM (inactive)
same,GI50,SNB-75,> 100 µM (inactive)
same,GI50,SNB-78,> 100 µM (inactive)
same,GI50,SR,> 10 µM (inactive)
same,GI50,SW-620,> 100 µM (inactive)
same,GI50,TK-10,> 100 µM (inactive)
same,GI50,U-251,> 100 µM (inactive)
same,GI50,UACC-257,> 100 µM (inactive)
same,GI50,UACC-62,> 100 µM (inactive)
same,GI50,UO-31,> 100 µM (inactive)
O=C1C2Nc3ccccc3SC2C(=O)N1c1cccc([N+](=O)[O-])c1 (configuration not stated),GI50,786-0,> 100 µM (inactive)
same,GI50,A498,> 100 µM (inactive)
same,GI50,A549,98.9 µM (inactive)
same,GI50,ACHN,> 84.1 µM (inactive)
same,GI50,CAKI-1,> 100 µM (inactive)
same,GI50,CCRF-CEM,86.7 µM (inactive)
same,GI50,COLO 205,> 100 µM (inactive)
same,GI50,DLD-1,48.9 µM (inactive)
same,GI50,DMS-114,44.1 µM (inactive)
same,GI50,DMS-273,1.46 µM (inactive)
same,GI50,EKVX,> 100 µM (inactive)
same,GI50,HCC 2998,10.7 µM (inactive)
same,GI50,HCT-116,> 100 µM (inactive)
same,GI50,HCT-15,7.67 µM
same,GI50,HL-60,> 100 µM (inactive)
same,GI50,HOP-62,> 54.8 µM (inactive)
same,GI50,HOP-92,> 100 µM (inactive)
same,GI50,HT-29,> 92.3 µM (inactive)
same,GI50,IGROV-1,> 100 µM (inactive)
same,GI50,K562,> 100 µM (inactive)
same,GI50,KM-20L2,> 20.5 µM (inactive)
same,GI50,KM12,17 µM (inactive)
same,GI50,LOX IMVI,> 71.1 µM (inactive)
same,GI50,LXFL 529,74.3 µM (inactive)
same,GI50,M14,> 100 µM (inactive)
same,GI50,M19-MEL,> 100 µM (inactive)
same,GI50,MOLT-4,51.8 µM (inactive)
same,GI50,Malme-3M,> 79.6 µM (inactive)
same,GI50,NCI-H226,> 86.9 µM (inactive)
same,GI50,NCI-H23,55.8 µM (inactive)
same,GI50,NCI-H460,50.2 µM (inactive)
same,GI50,NCI-H522,57.3 µM (inactive)
same,GI50,OVCAR-3,> 100 µM (inactive)
same,GI50,OVCAR-4,> 100 µM (inactive)
same,GI50,OVCAR-5,13.4 µM (inactive)
same,GI50,OVCAR-8,> 64 µM (inactive)
same,GI50,RPMI-8226,> 100 µM (inactive)
same,GI50,RXF 393,> 100 µM (inactive)
same,GI50,RXF 631,> 100 µM (inactive)
same,GI50,SF-268,> 100 µM (inactive)
same,GI50,SF-295,> 74.5 µM (inactive)
same,GI50,SF-539,> 100 µM (inactive)
same,GI50,SK-MEL-28,> 100 µM (inactive)
same,GI50,SK-MEL-2,> 75.7 µM (inactive)
same,GI50,SK-MEL-5,> 100 µM (inactive)
same,GI50,SK-OV-3,> 100 µM (inactive)
same,GI50,SN12C,> 86.9 µM (inactive)
same,GI50,SNB-19,> 100 µM (inactive)
same,GI50,SNB-75,> 100 µM (inactive)
same,GI50,SNB-78,> 100 µM (inactive)
same,GI50,SR,> 100 µM (inactive)
same,GI50,SW-620,> 100 µM (inactive)
same,GI50,TK-10,35.4 µM (inactive)
same,GI50,U-251,> 100 µM (inactive)
same,GI50,UACC-257,> 100 µM (inactive)
same,GI50,UACC-62,> 100 µM (inactive)
same,GI50,UO-31,> 90.2 µM (inactive)
same,GI50,XF498,> 100 µM (inactive)
N#CC(C(=N/O)/C(=N\O)C(C#N)c1ccccc1)c1ccccc1 (configuration not stated),GI50,786-0,> 100 µM (inactive)
same,GI50,A498,> 100 µM (inactive)
same,GI50,A549,> 100 µM (inactive)
same,GI50,ACHN,> 100 µM (inactive)
same,GI50,CCRF-CEM,> 100 µM (inactive)
same,GI50,COLO 205,> 100 µM (inactive)
same,GI50,DLD-1,> 100 µM (inactive)
same,GI50,DMS-114,> 100 µM (inactive)
same,GI50,EKVX,> 100 µM (inactive)
same,GI50,HCC 2998,> 100 µM (inactive)
same,GI50,HCT-116,> 100 µM (inactive)
same,GI50,HCT-15,> 100 µM
same,GI50,HL-60,> 100 µM (inactive)
same,GI50,HOP-18,> 100 µM (inactive)
same,GI50,HOP-62,> 100 µM (inactive)
same,GI50,HOP-92,> 100 µM (inactive)
same,GI50,HT-29,> 100 µM (inactive)
same,GI50,IGROV-1,> 100 µM (inactive)
same,GI50,K562,> 100 µM (inactive)
same,GI50,KM-20L2,> 100 µM (inactive)
same,GI50,KM12,> 100 µM (inactive)
same,GI50,LOX IMVI,87.3 µM (inactive)
same,GI50,LXFL 529,> 100 µM (inactive)
same,GI50,M14,> 100 µM (inactive)
same,GI50,M19-MEL,99.1 µM (inactive)
same,GI50,MOLT-4,> 100 µM (inactive)
same,GI50,Malme-3M,> 100 µM (inactive)
same,GI50,NCI-H226,> 100 µM (inactive)
same,GI50,NCI-H23,> 100 µM (inactive)
same,GI50,NCI-H460,> 100 µM (inactive)
same,GI50,NCI-H522,> 100 µM (inactive)
same,GI50,OVCAR-3,> 100 µM (inactive)
same,GI50,OVCAR-4,> 100 µM (inactive)
same,GI50,OVCAR-5,> 100 µM (inactive)
same,GI50,OVCAR-8,> 100 µM (inactive)
same,GI50,RPMI-8226,> 100 µM (inactive)
same,GI50,RXF 393,> 100 µM (inactive)
same,GI50,RXF 631,> 100 µM (inactive)
same,GI50,SF-268,> 100 µM (inactive)
same,GI50,SF-295,> 100 µM (inactive)
same,GI50,SF-539,> 100 µM (inactive)
same,GI50,SK-MEL-28,> 100 µM (inactive)
same,GI50,SK-MEL-2,> 100 µM (inactive)
same,GI50,SK-MEL-5,> 100 µM (inactive)
same,GI50,SK-OV-3,> 100 µM (inactive)
same,GI50,SN12C,> 100 µM (inactive)
same,GI50,SNB-19,> 100 µM (inactive)
same,GI50,SNB-75,> 100 µM (inactive)
same,GI50,SNB-78,> 100 µM (inactive)
same,GI50,SW-620,> 100 µM (inactive)
same,GI50,TK-10,> 100 µM (inactive)
same,GI50,U-251,> 100 µM (inactive)
same,GI50,UACC-257,> 100 µM (inactive)
same,GI50,UACC-62,> 100 µM (inactive)
same,GI50,UO-31,> 100 µM (inactive)
same,GI50,XF498,> 100 µM (inactive)
